For three compounds, inhibition and inhibition of growth results are on record in ChEMBL document CHEMBL3046952, “Stereoselective synthesis of 2-amino-1-hydroxy-3-phenylpropylphosphonic acid” (1996).

Experiment [1] can be described thus: Inhibition of microsomal aminopeptidase.
The nature of experiment [2]: Inhibition of cytosolic aminopeptidase.
In experiment [3] the test system is Cucumis sativus. Kind of experiment: Inhibition of growth of Cucumis sativus (cucumber) hypocotyl at 1.5 mM relative to control. In kind it is functional. The note with it: read-out: GI.
In experiment [4] the test system is Cucumis sativus. Kind of experiment: Inhibition of growth of Cucumis sativus (cucumber) hypocotyl at 0.5 mM relative to control. Format: functional. The following applies: read-out: GI.
The test system of experiment [5] is Cucumis sativus. As to the kind of experiment: Inhibition of growth of Cucumis sativus (cucumber) hypocotyl at 0.15 mM relative to control. Format: functional. The note with it: read-out: GI.
For experiment [6], the system named is Cucumis sativus. Kind of experiment: Inhibition of growth of Cucumis sativus (cucumber) hypocotyl at 0.05 mM relative to control. Format: functional. The following applies: read-out: GI.
Experiment [7] concerns Lepidium sativum. As to the kind of experiment: Inhibition of growth of Lepidium sativum hypocotyl at 0.15 mM relative to control. In kind it is functional. The following applies: read-out: GI.
The subject of experiment [8] is Lepidium sativum. Kind of experiment: Inhibition of growth of Lepidium sativum hypocotyl at 0.05 mM relative to control. Format: functional. The note with it: read-out: GI.
Experiment [9] concerns Lepidium sativum. Kind of experiment: Inhibition of growth of Lepidium sativum root at 1.5 mM relative to control. Format: functional. The note with it: read-out: GI.
The subject of experiment [10] is Lepidium sativum. As to the kind of experiment: Inhibition of growth of Lepidium sativum root at 0.5 mM relative to control. Format: functional. The note with it: read-out: GI.
In experiment [11] the test system is Lepidium sativum. Kind of experiment: Inhibition of growth of Lepidium sativum root at 0.15 mM relative to control. Format: functional. The following applies: read-out: GI.
Experiment [12] has as its system Lepidium sativum. Kind of experiment: Inhibition of growth of Lepidium sativum root at 0.05 mM relative to control. In kind it is functional. The note with it: read-out: GI.
Experiment [13] concerns Cucumis sativus. Kind of experiment: Inhibition of growth of Cucumis sativus (cucumber) root at 1.5 mM relative to control. Format: functional. The following applies: read-out: GI.
In experiment [14] the test system is Cucumis sativus. As to the kind of experiment: Inhibition of growth of Cucumis sativus (cucumber) root at 0.5 mM relative to control. The note with it: read-out: GI. In kind it is functional.
Experiment [15] relates to Cucumis sativus. As to the kind of experiment: Inhibition of growth of Cucumis sativus (cucumber) root at 0.15 mM relative to control. Format: functional. The following applies: read-out: GI.
Experiment [16] deals with Cucumis sativus. As to the kind of experiment: Inhibition of growth of Cucumis sativus (cucumber) root at 0.05 mM relative to control. Format: functional. The following applies: read-out: GI.
The subject of experiment [17] is Lepidium sativum. Kind of experiment: Inhibition of growth of Lepidium sativum hypocotyl at 1.5 mM relative to control. In kind it is functional. The following applies: read-out: GI.
Experiment [18] concerns Lepidium sativum. As to the kind of experiment: Inhibition of growth of Lepidium sativum hypocotyl at 0.5 mM relative to control. In kind it is functional. The note with it: read-out: GI.

The source made the active and inactive calls. The calls are words filed in the database; no cut-off is given here.

Consider `N[C@H](Cc1ccccc1)[C@@H](O)P(=O)(O)O` (stereo in doubt), for which the inhibition entry in experiment [1] and in [2] was “inactive” in each case. Further, the inhibition of growth at 1500 µM in the experiment with Cucumis sativus [3] is 49%; in the experiment on Lepidium sativum [9], 88%; with Cucumis sativus [13] it was 80%; with Lepidium sativum [17], 54%. Also, the inhibition of growth at 500 µM in the experiment on Cucumis sativus [4] is 37%; in the experiment with Lepidium sativum [10] it was 74%; in the experiment with Cucumis sativus [14] it was 73%. The inhibition of growth at 150 µM in the experiment with Cucumis sativus [5] was determined as 33%; with Lepidium sativum [7] it was 9%; in the experiment with Lepidium sativum [11], 66%; in the experiment on Cucumis sativus [15], 68%. Besides, the inhibition of growth at 50 µM amounted to 23% with Cucumis sativus [6], 16% in the experiment with Lepidium sativum [8], 36% in the experiment with Lepidium sativum [12] and 51% in the experiment with Cucumis sativus [16].

For `N[C@@H](Cc1ccccc1)[C@H](O)P(=O)(O)O` (stereo in doubt), the inhibition result in [1] and in experiment [2] was “inactive” in each case. Further, the inhibition of growth at 1500 µM in the experiment with Cucumis sativus [3] was determined as 64%; in the experiment with Lepidium sativum [9], 92%; in the experiment on Cucumis sativus [13], 83%; in the experiment with Lepidium sativum [17] it was 68%. Further, the inhibition of growth at 500 µM with Cucumis sativus [4] was 56%; in the experiment on Lepidium sativum [10] it was 87%; with Cucumis sativus [14] it was 81%; in the experiment on Lepidium sativum [18] it was 64%. Also, the inhibition of growth at 150 µM with Cucumis sativus [5] was 45%; in the experiment with Lepidium sativum [7], 46%; in the experiment on Lepidium sativum [11] it was 86%; in the experiment with Cucumis sativus [15], 75%. The inhibition of growth at 50 µM came to 36% in the experiment on Cucumis sativus [6], 22% in the experiment with Lepidium sativum [8], 82% in the experiment on Lepidium sativum [12] and 69% with Cucumis sativus [16].

In the case of `O=C(O)CNCP(=O)(O)O` [GLYPHOSATE], the inhibition of growth at 1500 µM in the experiment on Cucumis sativus [3] came out at 22%; with Lepidium sativum [9] it was 93%; in the experiment on Cucumis sativus [13], 84%; in the experiment on Lepidium sativum [17] it was 44%. Besides, the inhibition of growth at 150 µM with Lepidium sativum [7] was found to be 16%; in the experiment on Lepidium sativum [11], 88%; with Cucumis sativus [15], 71%. In addition, the inhibition of growth at 50 µM with Lepidium sativum [8] was found to be 13%; in the experiment with Lepidium sativum [12] it was 86%; in the experiment with Cucumis sativus [16], 60%. Further, the figures for the inhibition of growth at 500 µM with Lepidium sativum [10], in the experiment on Cucumis sativus [14] and in the experiment with Lepidium sativum [18] were 90%, 78% and 20%, respectively.
